Converted amounts (≈) assume the structure as drawn. Read-outs that look alike come from different tables or passages of the source.
Tests used:
[1] = test system: Bacillus subtilis (ATCC 6051); test: Agar well diffusion antimicrobial assay; conditions: ATCC6051, 24 h, read-out: inhibition zone, B. subtilis
[2] = test system: Staphylococcus aureus (ATCC12600); test: Agar well diffusion antimicrobial assay; conditions: ATCC12600, 24 h, read-out: inhibition zone, S. aureus
COX-2 = biological target: T1, COX-2 (Ovis aries, UniProt P79208); test: In vitro COX-2 inhibition assay (ovine COX-1/COX-2 assay kit); format: biochemical
T1 construct: purchased
T1 sequence (P79208 17-603): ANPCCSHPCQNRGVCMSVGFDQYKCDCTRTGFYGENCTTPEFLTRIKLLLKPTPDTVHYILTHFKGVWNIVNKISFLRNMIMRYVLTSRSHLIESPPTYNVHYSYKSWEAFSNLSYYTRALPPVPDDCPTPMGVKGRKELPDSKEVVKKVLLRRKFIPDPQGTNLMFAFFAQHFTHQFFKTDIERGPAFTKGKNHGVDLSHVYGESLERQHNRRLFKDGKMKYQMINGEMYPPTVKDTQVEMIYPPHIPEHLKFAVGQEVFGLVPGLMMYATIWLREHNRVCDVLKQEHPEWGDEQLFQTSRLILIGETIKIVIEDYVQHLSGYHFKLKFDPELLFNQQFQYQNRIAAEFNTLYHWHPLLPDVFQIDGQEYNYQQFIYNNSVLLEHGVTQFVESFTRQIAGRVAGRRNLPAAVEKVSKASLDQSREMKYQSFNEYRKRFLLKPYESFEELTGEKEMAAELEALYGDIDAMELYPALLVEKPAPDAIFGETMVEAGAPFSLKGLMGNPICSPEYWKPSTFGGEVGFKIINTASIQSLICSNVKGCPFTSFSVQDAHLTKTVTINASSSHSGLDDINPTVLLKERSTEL
Source text: The selectivity index (SI values) was defined as IC50 COX-1/ IC50 COX-2.
Recent studies on COX-1 and COX-2 inhibitors are focused on increasing the selectivity index of drugs towards […] as it acts as the main effector in the mechanism of pain and inflammation.

[3] = test system: Escherichia coli (ATCC 1175); test: Agar well diffusion antimicrobial assay; conditions: ATCC1175, 24 h, read-out: inhibition zone, E. coli
[4] = test system: Klebsiella pneumoniae (ATCC10145); test: Agar well diffusion antimicrobial assay; conditions: ATCC10145, 24 h, read-out: inhibition zone, K. pneumoniae
MTT cell viability assay = format: cell-based; conditions: human, mean ± SE, unit inferred
Method: (§1) The cytotoxic activities of the tested dendrimers against the breast cancer cell line MCF-7, embryonic kidney non-cancer cells (HEK-293), and hepatic cellular Hep-G2 were evaluated by MTT assay. A cell suspension was diluted with complete medium to a concentration of 5 × 10^4 cell/ml. By using a micropipette, 100 μL aliquots of the cell suspension were pipetted into all wells of 96-well plate (~5000 cells/well). These plates were incubated at 37 °C for one day to allow cell attachment. Then, cells were treated using 100 µL of growth medium consisting of 0, 0.001, 0.01, 0.1, 1, 10, or 100 μL of the freshly prepared aspirin-based dendrimers in triplicate. After that, cells were rinsed with phosphate-buffered saline (PBS), and an appropriate fresh medium including 20 μL MTT in phosphate-buffered saline (0.5 mg/mL) was added to the test wells. The 96-well plate was then further incubated in a carbon dioxide incubator at 37 °C for another 4 h, and the MTT assay study was done. The MTT assay procedure is based on the reduction of the tetrazolium salt MTT to unsolvable purple formazan via metabolically effective cells, making their activities quantifiable via spectrophotometry. Consequently, the produced formazan crystals were dissolved in 120 μL DMSO solvent for each well. Cell viability was established by measuring the absorbance of each well at 570 nm, and at a reference wavelength of 630 nm using an ELISA plate reader. […] Vinblastine was used as the standard and the corresponding IC50 values were determined by Equation (1):(1) IC50(%)=ControlOD−CompoundOD/ControlODx 100

[5] = test system: breast cancer cell lines (MCF-7); test: MTT cell viability assay; format: cell-based; conditions: Homo sapiens, MCF7, mean ± SE, unit inferred, read-out: Cytotoxicity (IC50), MCF-7
Method: as §1

[6] = test system: carrageenan-induced paw edema; test: Carrageenan-induced rat paw edema assay; format: in vivo; conditions: oral
Method: The present study was performed on adult albino Wistar rats, weighing 185 ± 200 g. Animals were kept in the animal house at MSA university. They were kept under suitable conditions of humidity and temperature (humidity 60–70%, temperature 24 ± 2 °C). The animals were fed by standard pellet chow (El-Nasr chemical Co., Cairo, Egypt) and were given access to water ad libitum.
Inflammation was induced in all groups by carrageenan (0.2 mL, 1% saline solution), which was injected subcutaneously into the plantar surface of the right hind paw. Group 1 served as a normal group, group 2 received carrageenan only, and groups 3, 4, 5, 6, and 7 received the test drugs orally 1 h before carrageenan (n = 6). Edema was measured in diameter (mm) at 1 h, 2 h, 4 h, and 6 h after carrageenan injection using a digital caliper. Percentage edema inhibition was calculated as [1 − (sample diameter/control diameter)] × 100. All data of the paw edema are represented as mean ± SD.
The strength of the tested dendrimers to inhibit edema (% edema inhibition) was calculated based on the changes in paw thickness (edema diameter, mm) at different periods; 1 h, 2 h, 4 h, and 6 h (Table 4).

PGE2 = test: Determination of rat serum PGE2; format: in vivo; conditions: 6 h after carrageenan, oral
Method: Inflammation was induced in all groups by carrageenan (0.2 mL, 1% saline solution) injected subcutaneously into the plantar surface of the right hind paw. Group 1 served as a normal group, group 2 received carrageenan only, and groups 3, 4, 5, 6, and 7 received the test drugs orally 1 h before carrageenan (n = 6) [58]. Blood samples were collected from all groups and centrifuged for 15 minutes to separate the serum and measure serum PGE2 Pg/mL. Percentage inhibition was calculated as [1 − (sample PGE2 concentration/control PGE2 concentration)] × 100. All data of the PGE2 concentration are represented as mean ± SD.
The ability of the dendrimers to inhibit PGE2 was evaluated by measuring the rat serum concentration of PGE2 in blood samples collected after 6 h from subcutaneous carrageenan injection.

gastric mucosa [7] = test: Evaluation of gastrointestinal toxicity (gastric ulcers); format: in vivo; conditions: rat, 400 mg/kg orally, 4 h, mean ± standard deviation
Method: The gastric mucosa was carefully inspected for the occurrence of ulcers with the aid of an illuminated magnifying lens (l0×), the ulcer score was calculated according to published method and ulcer index was determined using the reported formula [60]. Ulcer index = 10/x, where x= total mucosal area/ total ulcerated area. All data are represented as mean ± standard deviation.
Rats were fasted for 24 h and then randomly allocated into the following groups to evaluate the potential toxicity of dendrimers on the stomach:
Group 3 received G1 (400 mg/kg) orally.
Group 4 received G2 (400 mg/kg) orally.
Group 5 received G3 (400 mg/kg) orally.
Group 6 received G4 (400 mg/kg) orally.
Animals were left for 4 h and then sacrificed under light anesthesia for stomach dissection. The gastric mucosa was carefully inspected for the occurrence of ulcers with the aid of an illuminated magnifying lens (l0x), the ulcer score was calculated based on published study and ulcer index was determined using the reported formula [60]. Ulcer index = 10/x, where x= total mucosal area/total ulcerated area.

gastric mucosa [8] = test: Histopathology examination of stomach; format: in vivo, rat
Method: The stomach was dissected out, rinsed, and kept in a 10% neutral formalin solution. After fixation, tissues were routinely processed and stained with hematoxylin and eosin for light microscopy. Lesion scores were evaluated in this study according to a published report three parameters were evaluated in relation to their severity; epithelial cell loss was given a score from 0 to 3, hemorrhage was given a score from 0 to 4, and a score from 0 to 2 was given for inflammatory cell infiltration. The total score was given by the summation of the three scores.

Candida albicans = test: Agar well diffusion antifungal assay
Aspergillus niger = test: Agar well diffusion antifungal assay
[9] = HEK-293 embryonic kidney non-cancer cells, normal cell line, read-out: Cytotoxicity (IC50), HEK-293
[10] = Hep-G2 cells, read-out: Cytotoxicity (IC50), Hep-G2
[11] = rat stomach, compared to the aspirin group
[12] = 15 mg/mL, agar well diffusion, 37 °C 24 h, mean ± SE

Structure (SMILES): CC1(C)S[C@@H]2[C@H](NC(=O)[C@H](N)c3ccccc3)C(=O)N2[C@H]1C(=O)O [Ampicillin]
- zone of inhibition at 15000 µg/mL [1]: 25 ± 0.06 mm
- zone of inhibition at 15000 µg/mL [2]: 15 ± 0.05 mm

Structure (SMILES): CS(=O)(=O)c1ccc(C2=C(c3ccccc3)C(=O)OC2)cc1 [Rofecoxib]
- IC50 (COX-2): 25 nM

Structure (SMILES): CNC(C)C1CCC(N)C(OC2C(N)CC(N)C(OC3OCC(C)(O)C(NC)C3O)C2O)O1 (centres unmarked) [Gentamicin]
- zone of inhibition at 15000 µg/mL [3]: 17 ± 0.04 mm
- zone of inhibition at 15000 µg/mL [4]: 22 ± 0.02 mm

Structure (SMILES): COc1cccc2c1C(=O)c1c(O)c3c(c(O)c1C2=O)C[C@@](O)(C(=O)CO)C[C@@H]3O[C@H]1C[C@H](N)[C@H](O)[C@H](C)O1 [Doxorubicin]
- IC50 (MTT cell viability assay; [9]): 205.07 ± 0.05 µg/mL (≈ 377 µM)
- IC50 (MTT cell viability assay; [10]): 4.8 ± 0.09 µg/mL (≈ 8.83 µM)
- IC50 [5]: 5.7 ± 0.07 µg/mL (≈ 10.5 µM)

Structure (SMILES): CC(=O)Oc1ccccc1C(=O)O [Aspirin, acetylsalicylic acid]
- IC50 (MTT cell viability assay; [9]): 240.18 ± 0.03 µg/mL (≈ 1330 µM)
- IC50 (MTT cell viability assay; [10]): 192.4 ± 0.04 µg/mL (≈ 1070 µM)
- IC50 [5]: 208.96 ± 0.05 µg/mL (≈ 1160 µM)
- % Inhibition of edema 1 h ([6]; 1 h after carrageenan): 34.82%
- % Inhibition of edema 2 h ([6]; 2 h after carrageenan): 42.23%
- % Inhibition of edema 4 h ([6]; 4 h after carrageenan): 35.08%
- % Inhibition of edema 6 h ([6]; 6 h after carrageenan): 47.38%
- PGE2 Inhibition% (PGE2): 72.40%
- Gastric Mucosal Lesions, Ulcer Area (gastric mucosa [7]): 86.9 ± 9.51 mm²
- Gastric Mucosal Lesions, Ulcer Score (gastric mucosa [7]): 5.00 ± 0.00
- Epithelial loss score (gastric mucosa [8]; [11]): significantly higher epithelial loss score
- Hemorrhage score (gastric mucosa [8]; [11]): highest score of hemorrhage
- Histopathological findings of stomach tissue (gastric mucosa [8]; rat, 400 mg/kg orally, H&E): serious histopathological alterations
- zone of inhibition at 15000 µg/mL (Candida albicans; Candida albicans, 24 h, read-out: inhibition zone, C. albicans): 29 ± 0.09 mm
- zone of inhibition at 15000 µg/mL (Aspergillus niger; Aspergillus niger, 24 h, read-out: inhibition zone, A. niger): 30 ± 0.1 mm
- zone of inhibition at 15000 µg/mL [1]: 23 ± 0.08 mm
- zone of inhibition at 15000 µg/mL [2]: 30 ± 0.07 mm
- zone of inhibition at 15000 µg/mL [3]: 18 ± 0.06 mm
- zone of inhibition at 15000 µg/mL [4]: 26 ± 0.11 mm

Structure (SMILES): C[C@@H]1[C@H](O)[C@@H](C)/C=C/C=C/CC/C=C/C=C/C=C/C=C/C(O[C@H]2O[C@H](C)[C@@H](O)[C@H](N)[C@@H]2O)CC2O[C@](O)(CC(O)C(O)CCC(O)CC(O)CC(O)CC(=O)O[C@H]1C)CC(O)C2C(=O)O (some centres unmarked) [Nystatin]
- inhibition zone, C. albicans (Candida albicans; [12]): 21 ± 0.11 mm
- inhibition zone, A. niger (Aspergillus niger; [12]): 15 ± 0.08 mm

— article PMC8615929, “Aspirin-Based Organoiron Dendrimers as Promising Anti-Inflammatory, Anticancer, and Antimicrobial Drugs” (Biomolecules, 2021)
